From US9120804B2, “8-substituted 2-amino-[1,2,4] triazolo [1, 5-A] pyrazines as Syk tryrosine kinase inhibitors and GCN2 serin kinase inhibitors” (Merck Patent GmbH, priority 2012, dated 2015)

molecular target: T1, SYK (Homo sapiens, UniProt P43405); assay: SYK flash plate assay (enzyme assay); format: biochemical
T1 construct: 2.5 nM SYK, 400 nM Biotin-Aha-Aha-KEDPDYEWPSAKK
Summary of the method: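 Radiometric Flashplate format: biotinylated peptide substrate (400 nM) and 33P-labelled ATP (10 μM) react with 2.5 nM enzyme for 1 hour at 30 °C in Hepes buffer, pH 7.5. After EDTA quench and washing, counts are taken; staurosporine defines non-specific signal, and IC50 values are derived.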

IC50 [nM] | SMILES
< 100 | CC1(C)C(=O)Nc2cc(Nc3nc4c(N5CCC(C(N)=O)C5)nccn4n3)ccc21 (stereo not shown) [E3, 1-[2-(3,3-dimethyl-2-oxo-2,3-dihydro-1H-indol-6-ylamino)-[1,2,4]triazolo[1,5-a]pyrazin-8-yl]-pyrrolidine-3-carboxylic acid amide]
300 to 3000 | c1ccc(-c2ccccc2-c2nccn3nc(Nc4ccc5cn[nH]c5c4)nc23)cc1 [C11, (8-Biphenyl-2-yl-[1,2,4]triazolo[1,5-a]pyrazin-2-yl)-(1H-indazol-6-yl)-amine]
< 100 | CC1(C)CC(=O)Nc2cc(Nc3nc4c(N5CC[C@]6(CC(=O)NC6=O)C5)nccn4n3)ccc21 [E49, (S)-7-[2-(4,4-dimethyl-2-oxo-1,2,3,4-tetrahydro-quinolin-7-ylamino)-[1,2,4]triazolo[1,5-a]pyrazin-8-yl]-2,7-diaza-spiro[4.4]nonane-1,3-dione]
< 100 | CC1(C)C(=O)Nc2cc(Nc3nc4c(N5CCC6(CC5)CNC(=O)O6)nccn4n3)ccc21 [E27, 8-[2-(3,3-dimethyl-2-oxo-2,3-dihydro-1H-indol-6-ylamino)-[1,2,4]triazolo[1,5-a]pyrazin-8-yl]-1-oxa-3,8-diaza-spiro[4.5]decan-2-one]
< 100 | CC1(C)C(=O)Nc2cc(Nc3nc4c(N5CCCNCC5)nccn4n3)ccc21 [E68, 6-(8-[1,4]diazepan-1-yl-[1,2,4]triazolo[1,5-a]pyrazin-2-ylamino)-3,3-dimethyl-1,3-dihydro-indol-2-one]
100 to 300 | CN(C)c1ccc2c(c1)N(c1nccn3nc(Nc4ccc5c(c4)NC(=O)C5(C)C)nc13)CC2 [E119, 6-[8-(6-dimethylamino-2,3-dihydro-indol-1-yl)-[1,2,4]triazolo[1,5-a]pyrazin-2-ylamino]-3,3-dimethyl-1,3-dihydro-indol-2-one]
100 to 300 | CC1(C)C(=O)Nc2cc(Nc3nc4c(N5CCC(CNCC(F)(F)F)C5)nccn4n3)ccc21 (stereo not shown) [E65, 3,3-dimethyl-6-(8-{3[(2,2,2-trifluoro-ethylamino)-methyl]-pyrrolidin-1-yl}-[1,2,4]triazolo[1,5-a]pyrazin-2-ylamino)-1,3-dihydro-indol-2-one]
300 to 3000 | Cn1ncc2ccc(Nc3nc4c(-c5ccccc5-c5ccccc5)nccn4n3)cc21 [C20, (8-Biphenyl-2-yl-[1,2,4]triazolo[1,5-a]pyrazin-2-yl)-(1-methyl-1H-indazol-6-yl)-amine]
100 to 300 | CC1(C)C(=O)Nc2cc(Nc3nc4c(N5C6CCC5COC6)nccn4n3)ccc21 [C96, 3,3-dimethyl-6-[8-(3-oxa-8-aza-bicyclo[3.2.1 l]oct-8-yl)-[1,2,4]triazolo[1,5-a]pyrazin-2-ylamino]-1,3-dihydro-indol-2-one]
300 to 3000 | CC1(C)C(=O)Nc2cc(Nc3nc4c(N5CCCc6ccccc65)nccn4n3)ccc21 [E108, 6-[8-(3,4-dihydro-2H-quinolin-1-yl)-[1,2,4]triazolo[1,5-a]pyrazin-2-ylamino]-3,3-dimethyl-1,3-dihydro-indol-2-one]
3000 to 50000 | CC1(C)C(=O)Nc2cc(Nc3nc4c(O[C@@H]5CN[C@@H](c6ccccc6C(F)(F)F)C5)nccn4n3)ccc21 [E82, 3,3-dimethyl-6-{8-[(3S,5R)-5-(2-trifluoroinethyl-phenyl)-pyrrolidin-3-yloxy]-[1,2,4]triazolo[1,5-a]pyrazin-2-ylamino}-1,3-dihydro-indol-2-one]
300 to 3000 | COc1cccc(Nc2nc3c(-c4ccccc4-c4ccccc4)nccn3n2)c1 [C7, (8-Biphenyl-2-yl-[1,2,4]triazolo[1,5-a]pyrazin-2-yl)-(3-methoxy-phenyl)-amine]
300 to 3000 | CN1CCCC(Nc2nccn3nc(Nc4ccc5c(c4)NC(=O)C5(C)C)nc23)C1 (stereo not shown) [C107, 3,3-dimethyl-6-[8-(1-methyl-piperidin-3-ylamino)[1,2,4]triazolo[1,5-a]yrazin-2-ylamino]-1,3-dihydro-indol-2-one]
100 to 300 | Cn1cc(-c2nccn3nc(Nc4ccc(CS(=O)(=O)O)c(N)c4)nc23)cn1 [E36, {2-amino-4-[8-(1-methyl-1H-pyrazol-4-yl)-[1,2,4]triazolo[1,5-a]pyrazin-2-ylamino]-phenyl}-methanesulfonic acid]
100 to 300 | CC1(C)C(=O)Nc2cc(Nc3nc4c(N5CCC6(C5)OCCO6)nccn4n3)ccc21 [E10, 6-[8-(1,4-dioxa-7-aza-spiro[4.4]non-7-yl)-[1,2,4]triazolo[1,5-a]pyrazin-2-ylamino]-3,3-dimethyl-1,3-dihydro-indol-2-one]
< 100 | Cn1cc(-c2nccn3nc(Nc4ccc5c(c4)NC(=O)NC5(C)C)nc23)cn1 [E26, 4,4-dimethyl-7-[8-(1-methyl-1H-pyrazol-4-yl)-[1,2,4]triazolo[1,5-a]pyrazin-2-ylamino]-3,4-dihydro-1H-quinazolin-2-one]
< 100 | CC1(C)C(=O)Nc2cc(Nc3nc4c(N5CC[C@@]6(O)CCCC[C@H]6C5)nccn4n3)ccc21 [E136, 6-[8-((4aS,8aS)-4a-hydroxy-octahydro-isoquinolin-2-yl)-[1,2,4]triazolo[1,5-a]pyrazin-2-ylamino]-3,3-dimethyl-1,3-dihydro-indol-2-one]
300 to 3000 | CC1(C)C(=O)Nc2cc(Nc3nc4c(N5CC(O)CC5c5ccccc5)nccn4n3)ccc21 (stereo not shown) [C79, 6-[8-(4-hydroxy-2-phenyl-pyrrolidin-1-yl)-[1,2,4]triazolo[1,5-a]pyrazin-2-ylamino]-3,3-dimethyl-1,3-dihydro-indol-2-one]
< 100 | CC1(C)C(=O)Nc2cc(Nc3nc4c(-c5cccc6[nH]ncc56)nccn4n3)ccc21 [C90, 6-[8-(1H-indazol-4-yl)-[1,2,4]triazolo[1,5-a]pyrazin-2-ylamino]-3,3-dimethyl-1,3-dihydro-indol-2-one]
< 100 | CC1(C)CC(=O)Nc2cc(Nc3nc4c(N5CCC6(CC(=O)NC6=O)C5)nccn4n3)ccc21 (stereo not shown) [E7, 7-[2-(4,4-dimethyl-2-oxo-1,2,3,4-tetrahydro-quinolin-7-ylamino)-[1,2,4]triazolo[1,5-a]pyrazin-8-yl]-2,7-diaza-spiro[4.4]nonane-1,3-dione]
< 100 | CC1(C)CCNc2cc(Nc3nc4c(N5CCC6(CC5)CNC(=O)O6)nccn4n3)ccc21 [E53, 8-[2-(4,4-dimethyl-1,2,3,4-tetrahydro-quinolin-7-ylamino)-[1,2,4]triazolo[1,5-a]pyrazin-8-yl]-1-oxa-3,8-diaza-spiro[4.5]decan-2-one]
300 to 3000 | CC1(C)C(=O)Nc2cc(Nc3nc4c(-c5cc6n(n5)CCOC6)nccn4n3)ccc21 [E132, 6-[8-(6,7-Dihydro-4H-pyrazolo[5,1-c][1,4]oxazin-2-yl)-[1,2,4]triazolo[1,5-a]pyrazin-2-ylamino]-3,3-dimethyl-1,3-dihydro-indol-2-one]
< 100 | CC1Cc2ccccc2N1c1nccn2nc(Nc3ccc4c(c3)NC(=O)C4(C)C)nc12 (stereo not shown) [E137, 3,3-dimethyl-6-[8-(2-methyl-2,3-dihydro-indol-1-yl)-[1,2,4]triazolo[1,5-a]pyrazin-2-ylamino]-1,3-dihydro-indol-2-one]
< 100 | CC1(C)CCCc2cc(Nc3nc4c(N5CCC6(CC5)CNC(=O)O6)nccn4n3)ccc21 [E54, 8-[2-(5,5-dimethyl-5,6,7,8-tetrahydro-naphthalen-2-ylamino)-[1,2,4]triazolo[1,5-a]pyrazin-8-yl]-1-oxa-3,8-diaza-spiro[4.5]decan-2-one]
3000 to 50000 | C[S+]([O-])c1ccc(Nc2nc3c(-c4ccccc4-c4ccccc4)nccn3n2)cc1 (stereo not shown) [C31, (8-Biphenyl-2-yl-[1,2,4]triazolo[1,5-a]pyrazin-2-yl)-(4-methanesulfinyl-phenyl)-amine]
